Experimental data published in patent US9102670B2, “Pyrido-, pyrazo- and pyrimido-pyrimidine derivatives as mTOR inhibitors” (KuDOS Pharmaceuticals Limited, priority 2006, dated 2015).
Where two headings read alike, the source gives them in different places.

System: phosphorylation of Serine 473 in Akt
Assay: In Vitro Phospho-Ser473 Akt Assay in MDA-MB-468 cells
Assay type: cell-based
Details: Homo sapiens
[1] = MDA-MB-468, read-out: IC50 values against mTOR, phospho-Ser473 Akt assay, MDA-MB-468 cells
[2] = MDA-MB-468, read-out: IC50 values against mTOR, phospho-Ser473 Akt assay, MDA-MB-468 cells, upper bound

| SMILES | IC50 [1] [nM] | IC50 [2] [nM] |
| --- | --- | --- |
| C[C@H]1COCCN1c1nc(N2CCOC[C@@H]2C)c2ccc(-c3ccc(F)c(CNCC4CC4)c3)nc2n1 [Example 4z] | < 100 |  |
| CC(=O)NCc1cccc(-c2ccc3c(N4CCOC[C@@H]4C)nc(N4CCOC[C@@H]4C)nc3n2)c1 [Example 5a] | < 100 |  |
| COCC(=O)NCc1cccc(-c2ccc3c(N4CCOC[C@@H]4C)nc(N4CCOC[C@@H]4C)nc3n2)c1 [Example 5b] | < 300 |  |
| C[C@H]1COCCN1c1nc(N2CCOC[C@@H]2C)c2ccc(-c3cccc(CNC(=O)C4CC4)c3)nc2n1 [Example 5c] | < 300 |  |
| CC(C)C(=O)NCc1cccc(-c2ccc3c(N4CCOC[C@@H]4C)nc(N4CCOC[C@@H]4C)nc3n2)c1 [Example 5d] |  | < 1000 |
| C[C@H]1COCCN1c1nc(N2CCOC[C@@H]2C)c2ccc(-c3cccc(CNC(=O)C4CCC4)c3)nc2n1 [Example 5e] | < 300 |  |
| CC(C)CC(=O)NCc1cccc(-c2ccc3c(N4CCOC[C@@H]4C)nc(N4CCOC[C@@H]4C)nc3n2)c1 [Example 5f] |  | < 1000 |
| C[C@H]1COCCN1c1nc(N2CCOC[C@@H]2C)c2ccc(-c3cccc(CNC(=O)C(F)(F)F)c3)nc2n1 [Example 5g] | < 300 |  |
| C[C@H]1COCCN1c1nc(N2CCOC[C@@H]2C)c2ccc(-c3cccc(CN(C)C(=O)C(F)(F)F)c3)nc2n1 [Example 5n] | < 300 |  |
| CC(=O)NCc1ccc(-c2ccc3c(N4CCOC[C@@H]4C)nc(N4CCOC[C@@H]4C)nc3n2)cc1 [Example 5q] | < 100 |  |
| CC(=O)N(C)Cc1ccc(-c2ccc3c(N4CCOC[C@@H]4C)nc(N4CCOC[C@@H]4C)nc3n2)cc1 [Example 5r] |  | < 1000 |
| COCC(=O)N(C)Cc1ccc(-c2ccc3c(N4CCOC[C@@H]4C)nc(N4CCOC[C@@H]4C)nc3n2)cc1 [Example 5s] | < 300 |  |
| CC(=O)NCc1cc(-c2ccc3c(N4CCOC[C@@H]4C)nc(N4CCOC[C@@H]4C)nc3n2)ccc1F [Example 5t] |  | < 1000 |
| COCC(=O)NCc1cc(-c2ccc3c(N4CCOC[C@@H]4C)nc(N4CCOC[C@@H]4C)nc3n2)ccc1F [Example 5u] |  | < 1000 |
| C[C@H]1COCCN1c1nc(N2CCOC[C@@H]2C)c2ccc(-c3ccc(F)c(CNC(=O)C4CC4)c3)nc2n1 [Example 5v] | < 300 |  |
| CC(C)C(=O)NCc1cc(-c2ccc3c(N4CCOC[C@@H]4C)nc(N4CCOC[C@@H]4C)nc3n2)ccc1F [Example 5w] |  | < 1000 |
| C[C@H]1COCCN1c1nc(N2CCOC[C@@H]2C)c2ccc(-c3ccc(F)c(CNC(=O)C4CCC4)c3)nc2n1 [Example 5x] |  | < 1000 |
| CC(C)CC(=O)NCc1cc(-c2ccc3c(N4CCOC[C@@H]4C)nc(N4CCOC[C@@H]4C)nc3n2)ccc1F [Example 5y] |  | < 1000 |
| C[C@H]1COCCN1c1nc(N2CCOC[C@@H]2C)c2ccc(-c3ccc(F)c(CNC(=O)C(F)(F)F)c3)nc2n1 [Example 5z] |  | < 1000 |
| C[C@H]1COCCN1c1nc(N2CCOC[C@@H]2C)c2ccc(-c3ccoc3CO)nc2n1 [Example 6a] | < 300 |  |
| CNCc1ccc(-c2ccc3c(N4CCOC[C@@H]4C)nc(N4CCOC[C@@H]4C)nc3n2)o1 [Example 7c] | < 100 |  |
| CCNCc1ccc(-c2ccc3c(N4CCOC[C@@H]4C)nc(N4CCOC[C@@H]4C)nc3n2)o1 [Example 7d] | < 100 |  |
| C[C@H]1COCCN1c1nc(N2CCOC[C@@H]2C)c2ccc(-c3ccc(CNC4CC4)o3)nc2n1 [Example 7e] |  | < 1000 |
| C[C@H]1COCCN1c1nc(N2CCOC[C@@H]2C)c2ccc(-c3ccc(CNC4CCOCC4)o3)nc2n1 [Example 7f] | < 100 |  |

| SMILES | IC50 [1] [nM] | IC50 [2] [nM] |
| --- | --- | --- |
| C[C@H]1COCCN1c1nc(N2CCOC[C@@H]2C)c2ccc(-c3ccc(CNCC4CC4)o3)nc2n1 [Example 7g] | < 100 |  |
| C[C@H]1COCCN1c1nc(N2CCOC[C@@H]2C)c2ccc(-c3ccc(CNc4cc[nH]n4)o3)nc2n1 [Example 7i] |  | < 1000 |
| C[C@H]1COCCN1c1nc(N2CCOC[C@@H]2C)c2ccc(-c3ccc(CNCC(N)=O)o3)nc2n1 [Example 7j] |  | < 1000 |
| CC(C)NCc1ccc(-c2ccc3c(N4CCOC[C@@H]4C)nc(N4CCOC[C@@H]4C)nc3n2)o1 [Example 7k] | < 100 |  |
| C[C@H]1COCCN1c1nc(N2CCOC[C@@H]2C)c2ccc(-c3cccc(C(=O)NCCO)c3)nc2n1 [Example 8a] | < 100 |  |
| COc1ccc(-c2ccc3c(N4CCOC[C@@H]4C)nc(N4CCOC[C@@H]4C)nc3n2)cc1C(=O)NCCO [Example 8b] | < 100 |  |
| COCc1cc(-c2ccc3c(N4CCOC[C@@H]4C)nc(N4CCOC[C@@H]4C)nc3n2)ccc1F [Example 9a] | < 300 |  |
| C[C@@H]1CN(c2nc(N3CCOC[C@@H]3C)c3ncc(-c4ccccc4)nc3n2)C[C@H](C)O1 [Example 12a] | < 100 |  |
| Cc1ccc(-c2cnc3c(N4CCOC[C@@H]4C)nc(N4C[C@@H](C)O[C@@H](C)C4)nc3n2)cc1 [Example 12b] |  | < 1000 |
| Cc1ccc(-c2cnc3c(N4CCOC[C@@H]4C)nc(N4CCOC[C@@H]4C)nc3n2)cc1 [Example 12c] | < 100 |  |
| C[C@H]1COCCN1c1nc(N2CCOC[C@@H]2C)c2ncc(-c3ccccc3)nc2n1 [Example 12d] | < 300 |  |
| C[C@H]1COCCN1c1nc(N2CCOC[C@@H]2C)c2ccc(-c3ccc(OCCN(C)C)nc3)nc2n1 [Example 13b] | < 300 |  |
| COc1ccc(-c2ccc3c(N4CCOC[C@@H]4C)nc(N4CCOC[C@@H]4C)nc3n2)cc1C(N)=O [Example 14b] | < 100 |  |
| COc1ccc(-c2ccc3c(N4CCOC[C@@H]4C)nc(N4CCCC[C@H]4C)nc3n2)cc1CO [Example 18a] | < 100 |  |
| COC(=O)[C@@H]1C[C@@H](O)CN1c1nc(N2CCOC[C@@H]2C)c2ccc(-c3ccc(OC)c(CO)c3)nc2n1 [Example 18aa] |  | < 1000 |
| COc1ccc(-c2ccc3c(N4CCOC[C@@H]4C)nc(N4CC[C@H](O)C4)nc3n2)cc1CO [Example 18ab] | < 300 |  |
| COc1ccc(-c2ccc3c(N4CCOC[C@@H]4C)nc(N4CCC(N5CCOCC5)CC4)nc3n2)cc1CO [Example 18ac] | < 100 |  |
| COc1ccc(-c2ccc3c(N4CCOC[C@@H]4C)nc(N4CCC(N)CC4)nc3n2)cc1CO [Example 18ad] | < 100 |  |
| COc1ccc(-c2ccc3c(N4CCOC[C@@H]4C)nc(N4CC(C)CC(C)C4)nc3n2)cc1CO (stereo partly shown) [Example 18ae] | < 100 |  |
| COc1ccc(-c2ccc3c(N4CCOC[C@@H]4C)nc(N4CCC(C(F)(F)F)CC4)nc3n2)cc1CO [Example 18af] | < 300 |  |
| COc1ccc(-c2ccc3c(N4CCOC[C@@H]4C)nc(N4CCC5CCCCC5C4)nc3n2)cc1CO (stereo partly shown) [Example 18ag] |  | < 1000 |
| COC(=O)[C@@H]1CCCN1c1nc(N2CCOC[C@@H]2C)c2ccc(-c3ccc(OC)c(CO)c3)nc2n1 [Example 18ah] | < 100 |  |
| COc1ccc(-c2ccc3c(N4CCOC[C@@H]4C)nc(N4CCC(N5CCCC5)CC4)nc3n2)cc1CO [Example 18ai] |  | < 1000 |
| COc1ccc(-c2ccc3c(N4CCOC[C@@H]4C)nc(N4CCCC(OC)C4)nc3n2)cc1CO (stereo partly shown) [Example 18aj] | < 300 |  |

| SMILES | IC50 [1] [nM] | IC50 [2] [nM] |
| --- | --- | --- |
| COc1ccc(-c2ccc3c(N4CCOC[C@@H]4C)nc(N4CCC(C(=O)c5ccc(Cl)cc5)CC4)nc3n2)cc1CO [Example 18ak] | < 100 |  |
| COc1ccc(-c2ccc3c(N4CCOC[C@@H]4C)nc(N4CCC(Cc5ccccc5)CC4)nc3n2)cc1CO [Example 18al] |  | < 1000 |
| COc1ccc(-c2ccc3c(N4CCOC[C@@H]4C)nc(N4CCC(O)(c5ccccc5)CC4)nc3n2)cc1CO [Example 18am] | < 100 |  |
| COc1ccc(-c2ccc3c(N4CCOC[C@@H]4C)nc(N4CCC(C#N)(c5ccccc5)CC4)nc3n2)cc1CO [Example 18an] | < 100 |  |
| COc1ccc(-c2ccc3c(N4CCOC[C@@H]4C)nc(N4CCCC4C)nc3n2)cc1CO (stereo partly shown) [Example 18ap] | < 100 |  |
| COc1ccc(-c2ccc3c(N4CCOC[C@@H]4C)nc(N4CCC(c5ccc(Cl)cc5)CC4)nc3n2)cc1CO [Example 18aq] | < 300 |  |
| COc1ccc(-c2ccc3c(N4CCOC[C@@H]4C)nc(N4CCCC(c5nc(C)no5)C4)nc3n2)cc1CO (stereo partly shown) [Example 18ar] | < 100 |  |
| COc1ccc(-c2ccc3c(N4CCOC[C@@H]4C)nc(N4CCCC(CN(C)C)C4)nc3n2)cc1CO (stereo partly shown) [Example 18as] | < 300 |  |
| COc1ccc(-c2ccc3c(N4CCOC[C@@H]4C)nc(N4CCCC(N)C4)nc3n2)cc1CO (stereo partly shown) [Example 18au] | < 100 |  |
| COc1ccc(-c2ccc3c(N4CCOC[C@@H]4C)nc(NC(C)CC(C)C)nc3n2)cc1CO (stereo partly shown) [Example 18av] | < 300 |  |
| COc1ccc(-c2ccc3c(N4CCOC[C@@H]4C)nc(NC4CCCC4)nc3n2)cc1CO [Example 18aw] | < 100 |  |
| COCC(C)Nc1nc(N2CCOC[C@@H]2C)c2ccc(-c3ccc(OC)c(CO)c3)nc2n1 (stereo partly shown) [Example 18ax] | < 100 |  |
| COc1ccc(-c2ccc3c(N4CCOC[C@@H]4C)nc(-n4ccnc4)nc3n2)cc1CO [Example 18ay] | < 300 |  |
| COC(=O)c1cncn1-c1nc(N2CCOC[C@@H]2C)c2ccc(-c3ccc(OC)c(CO)c3)nc2n1 [Example 18az] |  | < 1000 |
| COc1ccc(-c2ccc3c(N4CCOC[C@@H]4C)nc(-n4cnc(C)c4C=O)nc3n2)cc1CO [Example 18ba] | < 100 |  |
| COc1ccc(-c2ccc3c(N4CCOC[C@@H]4C)nc(-n4cnc(Br)c4)nc3n2)cc1CO [Example 18bb] | < 300 |  |
| COc1ccc(-c2ccc3c(N4CCOC[C@@H]4C)nc(-n4cc(Br)nc4C)nc3n2)cc1CO [Example 18bc] | < 300 |  |
| CCC1CCC(C)N(c2nc(N3CCOC[C@@H]3C)c3ccc(-c4ccc(OC)c(CO)c4)nc3n2)C1 (stereo partly shown) [Example 18bd] | < 100 |  |
| COc1ccc(-c2ccc3c(N4CCOC[C@@H]4C)nc(N4CCC(c5ccccc5)CC4)nc3n2)cc1CO [Example 18be] | < 100 |  |
| COc1ccc(-c2ccc3c(N4CCOC[C@@H]4C)nc(N4CCOC(c5ccccc5)C4)nc3n2)cc1CO (stereo partly shown) [Example 18bf] | < 300 |  |
| COc1ccc(-c2ccc3c(N4CCOC[C@@H]4C)nc(N4C(C)CCC4C)nc3n2)cc1CO (stereo partly shown) [Example 18bg] | < 100 |  |
| COc1ccc(-c2ccc3c(N4CCOC[C@@H]4C)nc(N4CCC(c5ccncc5)CC4)nc3n2)cc1CO [Example 18bi] | < 100 |  |
